Assay results as given in patent US8148531B2 (Chroma Therapeutics Ltd., priority 2005, dated 2012).
Structures can show the parent of a compound that is named as a salt.

Tests used:
Format in all cases: cell-based
U937 cell line = test: Cell inhibition assay (SRB cell viability), U937; conditions: Homo sapiens, U-937, IC50 range class, 72 h, read-out: Inhibitor Activity vs U937 cell line
Description: (§1) The corresponding cancer cell lines (U937, HCT 116 and HUT) growing in log phase were harvested and seeded at 1000 cells/well (200 ul final volume) into 96-well tissue culture plates. Following 24 h of cell growth cells were treated with compounds (final concentration of 20 uM). Plates were then re-incubated for a further 72 h before a sulphorhodamine B (SRB) cell viability assay was conducted according to Skehan 1990 J Natl Canc Inst 82, 1107-1112.
(§2) Data were expressed as a percentage inhibition of the control, measured in the absence of inhibitor, as follows: — % inhibition=100−((S^i/S^o)×100) where S^i is the signal in the presence of inhibitor and S^o is the signal in the presence of DMSO.
(§3) IC50 values were determined by non-linear regression analysis, after fitting the results of eight data points to the equation for sigmoidal dose response with variable slope (% activity against log concentration of compound), using Graphpad Prism software.

HUT cell line = test: Cell inhibition assay (SRB cell viability), HUT; conditions: IC50 range class, 72 h, read-out: Inhibitor Activity vs HUT cell line
Description: as §1, §2, §3

HCT 116 cell line = test: Cell inhibition assay (SRB cell viability), HCT 116; conditions: Homo sapiens, IC50 range class, 72 h, read-out: Inhibitor Activity vs HCT 116 cell line
Description: as §1, §2, §3

| Compound | IC50 (U937 cell line) [nM] | IC50 (HUT cell line) [nM] | IC50 (HCT 116 cell line) [nM] |
| --- | --- | --- | --- |
| COc1cc2c(Oc3ccc(NC(=O)c4ccc(C(F)(F)F)cc4)cc3F)ccnc2cc1OCC[C@@H](N)C(=O)OC1CCCC1 [Example 106, (R)-2-Amino-4-{4-[2-fluoro-4-(4-trifluoromethyl-benzoylamino)-phenoxy]-6-methoxy-quinolin-7-yloxy}-butyric acid cyclopentyl ester] | < 1000 | < 1000 | < 1000 |
| COc1cc2c(Oc3ccc(CC(=O)Nc4ccc(F)cc4F)cc3)ccnc2cc1OCC[C@H](N)C(=O)OC1CCCC1 [Example 88, (S)-2-Amino-4-(4-{4-[(2,4-difluoro-phenylcarbamoyl)-methyl]-phenoxy}-6-methoxy-quinolin-7-yloxy)-butyric acid cyclopentyl ester] | < 1000 | < 1000 | < 1000 |
| COc1cc2c(Oc3ccccc3)ccnc2cc1OCC[C@H](N)C(=O)OC1CCCC1 [Example 7, (S)-2-Amino-4-(6-methoxy-4-phenoxy-quinolin-7-yloxy)-butyric acid cyclopentyl ester] | 1000 to 5000 | 1000 to 5000 | > 5000 |
| COc1cc2c(Oc3ccc(NC(=O)c4ccccc4)cc3OC)ccnc2cc1OCC[C@H](N)C(=O)OC1CCCC1 [Example 132, (S)-2-Amino-4-[4-(4-benzoylamino-2-methoxy-phenoxy)-6-methoxy-quinolin-7-yloxy]-butyric acid cyclopentyl ester] | < 1000 | 1000 to 5000 | 1000 to 5000 |
| COc1cc2c(Oc3ccc(NC(=O)c4ccc(F)cc4)cc3)ccnc2cc1OCC[C@H](N)C(=O)OC1CCCC1 [Example 63, (S)-2-Amino-4-{4-[4-(4-fluoro-benzoylamino)-phenoxy]-6-methoxy-quinolin-7-yloxy}-butyric acid cyclopentyl ester] | < 1000 | < 1000 | < 1000 |
| COc1cc2c(Oc3ccc(NC(=O)c4ccccc4)cc3)ccnc2cc1OCC[C@H](NCc1ccccc1)C(=O)OC1CCCC1 [Example 40, (S)-4-[4-(4-Benzoylamino-phenoxy)-6-methoxy-quinolin-7-yloxy]-2-benzylamino-butyric acid cyclopentyl ester] | < 1000 | 1000 to 5000 | 1000 to 5000 |
| COc1cc2c(Oc3ccc(CC(=O)Nc4cccc(F)c4)cc3)ccnc2cc1OCC[C@H](N)C(=O)OC1CCCC1 [Example 84, (S)-2-Amino-4-(4-{4-[(3-fluoro-phenylcarbamoyl)-methyl]-phenoxy}-6-methoxy-quinolin-7-yloxy)-butyric acid cyclopentyl ester] | < 1000 | < 1000 | < 1000 |
| COc1cc2c(Oc3ccc(NC(=O)c4ccccc4)cc3)ccnc2cc1OC1CCN(CC[C@H](N)C(=O)OC2CCCC2)C1 (stereo partly drawn) [Example 137, (S)-2-Amino-4-{3-[4-(4-benzoylamino-phenoxy)-6-methoxy-quinolin-7-yloxy]-pyrrolidin-1-yl}-butyric acid cyclopentyl ester] | < 1000 | < 1000 | 1000 to 5000 |
| CCN(CC)[C@@H](CCOc1cc2nccc(Oc3ccc(NC(=O)c4ccccc4)cc3)c2cc1OC)C(=O)OC1CCCC1 [Example 41, (S)-4-[4-(4-Benzoylamino-phenoxy)-6-methoxy-quinolin-7-yloxy]-2-diethylamino-butyric acid cyclopentyl ester] | 1000 to 5000 | 1000 to 5000 | 1000 to 5000 |
| COc1cc2c(Sc3ccc(NC(=O)Nc4ccc(C(F)(F)F)cc4)cc3)ccnc2cc1OCCC[C@@H](N)C(=O)OC1CCCC1 [Example 121, (R)-2-Amino-5-(6-methoxy-4-{4-[3-(4-trifluoromethyl-phenyl)-ureido]-phenylsulfanyl}-quinolin-7-yloxy)-pentanoic acid cyclopentyl ester] | < 1000 | < 1000 | < 1000 |
| COc1cc2c(Oc3ccc(NC(=O)c4ccccc4)cc3)ccnc2cc1OCC[C@H](NC(=O)c1cccs1)C(=O)OC1CCCC1 [Example 44, (S)-4-[4-(4-Benzoylamino-phenoxy)-6-methoxy-quinolin-7-yloxy]-2-[(thiophene-2-carbonyl)-amino]-butyric acid cyclopentyl ester] | < 1000 | 1000 to 5000 | > 5000 |
| CCN[C@@H](CCOc1cc2nccc(Oc3ccc(NC(=O)c4ccccc4)cc3)c2cc1OC)C(=O)OC1CCCC1 [Example 38, (S)-4-[4-(4-Benzoylamino-phenoxy)-6-methoxy-quinolin-7-yloxy]-2-ethylamino-butyric acid cyclopentyl ester] | < 1000 | 1000 to 5000 | 1000 to 5000 |
| COc1cc2c(Nc3cc(C)[nH]n3)nc(Sc3ccccc3)nc2cc1OCC[C@H](N)C(=O)OC1CCCC1 [Example 143, (S)-2-Amino-4-[6-methoxy-4-(5-methyl-1H-pyrazol-3-ylamino)-2-phenylsulfanyl-quinazolin-7-yloxy]-butyric acid cyclopentyl ester] | 1000 to 5000 | 1000 to 5000 | > 5000 |
| COc1cc2c(Oc3ccc(NC(=O)c4ccccc4)cc3)ccnc2cc1OCC[C@H](N)C(=O)OC1CCCCC1 [Example 48, (S)-2-Amino-4-[4-(4-benzoylamino-phenoxy)-6-methoxyquinolin-7-yloxy]-butyric acid cyclohexyl ester] | < 1000 | < 1000 | < 1000 |
| COc1cc2c(Oc3ccc(NC(=O)c4cccs4)cc3)ccnc2cc1OCC[C@H](N)C(=O)OC1CCCC1 [Example 75, (S)-2-Amino-4-(6-methoxy-4-{4-[(thiophene-2-carbonyl)-amino]-phenoxy}-quinolin-7-yloxy)-butyric acid cyclopentyl ester] | < 1000 | < 1000 | < 1000 |
| COc1cc2c(Oc3ccc(NC(=O)c4ccccc4)cc3)ccnc2cc1OC[C@@H]1CCCN1CC[C@H](N)C(=O)OC1CCCC1 [Example 135, (S)-2-Amino-4-{(S)-2-[4-(4-benzoylamino-phenoxy)-6-methoxy-quinolin-7-yloxymethyl]-pyrrolidin-1-yl}-butyric acid cyclopentyl ester] | < 1000 | 1000 to 5000 | 1000 to 5000 |
| COc1ccc(NC(=O)Cc2ccc(Oc3ccnc4cc(OCC[C@H](N)C(=O)OC5CCCC5)c(OC)cc34)cc2)cc1 [Example 90, (S)-2-Amino-4-(6-methoxy-4-{4-[(4-methoxy-phenylcarbamoyl)-methyl]-phenoxy}-quinolin-7-yloxy)-butyric acid cyclopentyl ester] | < 1000 | < 1000 | < 1000 |
| COc1cc2c(Nc3ccc(NC(=O)c4ccccc4)cc3)c(Br)cnc2cc1OCC[C@H](N)C(=O)OC1CCCC1 [Example 33, Dihydrochloride] | 1000 to 5000 | 1000 to 5000 | > 5000 |
| COc1cc2c(Oc3ccc(NC(=O)Nc4ccc(C(F)(F)F)cc4)cc3F)ccnc2cc1OCCC[C@@H](N)C(=O)OC1CCCC1 [Example 123, (R)-2-Amino-5-(4-{2-fluoro-4-[3-(4-trifluoromethyl-phenyl)-ureido]-phenoxy}-6-methoxy-quinolin-7-yloxy)-pentanoic acid cyclopentyl ester] | < 1000 | < 1000 | < 1000 |
